Tests used:
Settings in all cases: exposure time: 72 h
[1] = tested on: E13 (patient-derived glioblastoma stem cells of classical subtype); assay: surviving fraction (nuclei count normalised to DMSO); higher = more cells surviving (less toxic)
[2] = tested on: E21 (patient-derived glioblastoma stem cells of mesenchymal subtype); assay: as above
[3] = tested on: E28 (patient-derived glioblastoma stem cells of classical subtype); assay: as above
[4] = tested on: E31 (patient-derived glioblastoma stem cells of proneural subtype); assay: as above
[5] = tested on: E34 (patient-derived glioblastoma stem cells of proneural subtype); assay: as above
[6] = tested on: E57 (patient-derived glioblastoma stem cells of mesenchymal subtype); assay: as above
[7] = tested on: FT3469 (normal neural stem cell line); assay: as above
[8] = tested on: E13; assay: phenotypic distance (Euclidean, principal components) from DMSO controls (arbitrary units); higher = stronger morphological change
[9] = tested on: E21; assay: as above
[10] = tested on: E28; assay: as above
[11] = tested on: E31; assay: as above
[12] = tested on: E34; assay: as above
[13] = tested on: E57; assay: as above
[14] = tested on: FT3469; assay: as above
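Throughout, for phenotypic distance (Euclidean, principal components) from DMSO controls: cell Painting imaging in 384-well plates, CellProfiler features reduced to at least 20 principal components, Euclidean distance versus same-plate DMSO vehicle wells (0.1% v/v), median over six images per well.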
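Throughout, for surviving fraction (nuclei count normalised to DMSO): nuclei counted by high-content imaging of Hoechst-stained cells in laminin-coated 384-well plates, relative to 0.1% DMSO vehicle wells, with staurosporine as cell-death control.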

## Nc1ccn([C@H]2CC[C@@H](CO)O2)c(=O)n1 [Zalcitabine]
[1]; 4.1 nM
  surviving fraction: 0.88
[1]; 12.3 nM
  surviving fraction: 1.02
[1]; 37 nM
  surviving fraction: 1.01
[1]; 111.1 nM
  surviving fraction: 0.953
[1]; 333.3 nM
  surviving fraction: 0.94
[1]; 1000 nM
  surviving fraction: 1.01
[1]; 3000 nM
  surviving fraction: 0.913
[2]; 4.1 nM
  surviving fraction: 0.917
[2]; 12.3 nM
  surviving fraction: 0.894
[2]; 37 nM
  surviving fraction: 1.08
[2]; 111.1 nM
  surviving fraction: 0.99
[2]; 333.3 nM
  surviving fraction: 0.9
[2]; 1000 nM
  surviving fraction: 0.987
[2]; 3000 nM
  surviving fraction: 0.979
[3]; 4.1 nM
  surviving fraction: 1.04
[3]; 12.3 nM
  surviving fraction: 1.04
[3]; 37 nM
  surviving fraction: 0.97
[3]; 111.1 nM
  surviving fraction: 1.13
[3]; 333.3 nM
  surviving fraction: 1.01
[3]; 1000 nM
  surviving fraction: 1.12
[3]; 3000 nM
  surviving fraction: 0.87
[4]; 4.1 nM
  surviving fraction: 0.933
[4]; 12.3 nM
  surviving fraction: 1.11
[4]; 37 nM
  surviving fraction: 0.978
[4]; 111.1 nM
  surviving fraction: 1.13
[4]; 333.3 nM
  surviving fraction: 0.919
[4]; 1000 nM
  surviving fraction: 0.885
[4]; 3000 nM
  surviving fraction: 0.972
[5]; 4.1 nM
  surviving fraction: 0.869
[5]; 12.3 nM
  surviving fraction: 0.954
[5]; 37 nM
  surviving fraction: 1.05
[5]; 111.1 nM
  surviving fraction: 0.887
[5]; 333.3 nM
  surviving fraction: 0.896
[5]; 1000 nM
  surviving fraction: 0.977
[5]; 3000 nM
  surviving fraction: 0.802
[6]; 4.1 nM
  surviving fraction: 1.06
[6]; 12.3 nM
  surviving fraction: 0.945
[6]; 37 nM
  surviving fraction: 0.991
[6]; 111.1 nM
  surviving fraction: 1.09
[6]; 333.3 nM
  surviving fraction: 0.982
[6]; 1000 nM
  surviving fraction: 1.02
[6]; 3000 nM
  surviving fraction: 1.05
[7]; 4.1 nM
  surviving fraction: 1.11
[7]; 12.3 nM
  surviving fraction: 1.03
[7]; 37 nM
  surviving fraction: 0.953
[7]; 111.1 nM
  surviving fraction: 1.1
[7]; 333.3 nM
  surviving fraction: 1.02
[7]; 1000 nM
  surviving fraction: 1.11
[7]; 3000 nM
  surviving fraction: 0.989
[8]; 4.1 nM
  phenotypic distance: 0.723
[8]; 12.3 nM
  phenotypic distance: 0.719
[8]; 37 nM
  phenotypic distance: 0.578
[8]; 111.1 nM
  phenotypic distance: 0.722
[8]; 333.3 nM
  phenotypic distance: 0.483
[8]; 1000 nM
  phenotypic distance: 0.498
[8]; 3000 nM
  phenotypic distance: 0.729
[9]; 4.1 nM
  phenotypic distance: 0.578
[9]; 12.3 nM
  phenotypic distance: 0.976
[9]; 37 nM
  phenotypic distance: 0.36
[9]; 111.1 nM
  phenotypic distance: 0.783
[9]; 333.3 nM
  phenotypic distance: 0.577
[9]; 1000 nM
  phenotypic distance: 0.331
[9]; 3000 nM
  phenotypic distance: 0.684
[10]; 4.1 nM
  phenotypic distance: 0.369
[10]; 12.3 nM
  phenotypic distance: 0.351
[10]; 37 nM
  phenotypic distance: 0.756
[10]; 111.1 nM
  phenotypic distance: 0.552
[10]; 333.3 nM
  phenotypic distance: 0.598
[10]; 1000 nM
  phenotypic distance: 0.381
[10]; 3000 nM
  phenotypic distance: 0.783
[11]; 4.1 nM
  phenotypic distance: 0.62
[11]; 12.3 nM
  phenotypic distance: 0.852
[11]; 37 nM
  phenotypic distance: 0.398
[11]; 111.1 nM
  phenotypic distance: 0.47
[11]; 333.3 nM
  phenotypic distance: 0.46
[11]; 1000 nM
  phenotypic distance: 0.667
[11]; 3000 nM
  phenotypic distance: 0.528
[12]; 4.1 nM
  phenotypic distance: 0.915
[12]; 12.3 nM
  phenotypic distance: 0.593
[12]; 37 nM
  phenotypic distance: 0.379
[12]; 111.1 nM
  phenotypic distance: 0.902
[12]; 333.3 nM
  phenotypic distance: 1.02
[12]; 1000 nM
  phenotypic distance: 0.999
[12]; 3000 nM
  phenotypic distance: 0.863
[13]; 4.1 nM
  phenotypic distance: 1.83
[13]; 12.3 nM
  phenotypic distance: 0.448
[13]; 37 nM
  phenotypic distance: 0.547
[13]; 111.1 nM
  phenotypic distance: 0.703
[13]; 333.3 nM
  phenotypic distance: 0.624
[13]; 1000 nM
  phenotypic distance: 0.55
[13]; 3000 nM
  phenotypic distance: 0.703
[14]; 4.1 nM
  phenotypic distance: 3.61
[14]; 12.3 nM
  phenotypic distance: 0.392
[14]; 37 nM
  phenotypic distance: 0.547
[14]; 111.1 nM
  phenotypic distance: 0.849
[14]; 333.3 nM
  phenotypic distance: 0.603
[14]; 1000 nM
  phenotypic distance: 0.632
[14]; 3000 nM
  phenotypic distance: 0.569
